Legend:
[1] = tested on: Botrytis fabae NBRC7171 flavin-binding glucose dehydrogenase BoGLD (D), purified, wild type; conditions: read-out: Km value, D-glucose varied, Hanes-Woolf plot, DCIP/1-m-PMS, pH 6.0, 37° C.
Text: The transmitted active fraction was combined with the active fraction eluted after adsorbed and these fractions were concentrated and dialyzed against the buffer solution C3.

[2] = tested on: Ciborinia camelliae NBRC103663 flavin-binding glucose dehydrogenase CiGLD (F), purified from A. oryzae NS4 with CiGLD-Atsig modified gene, SEQ ID NO: …; conditions: read-out: Km value, D-glucose varied, Hanes-Woolf plot, DCIP/1-m-PMS, pH 6.0, 37° C.
Method: (§1) Each solution was mixed according to the following procedures to measure the absorbance, thereby examining GLD activity.
(§2) Then, 0.05 mL of an enzyme sample was added to the mixture to start a reaction. The amount (ΔA600) of reduction in light absorbance per minute at 600 nm along with the progress of the enzymatic reaction was measured for 5 minutes from the start of the reaction to calculate GLD activity from the straight line part according to the equation 1. At this time, in the measurement of GLD activity, the amount of an enzyme reducing 1 μmol of DCIP at 37° C. and a pH of 6.0 for one minute was defined as 1 U.
(§3) In the above formula, 3.0 represents the amount (mL) of reaction reagent+oxygen solution, 10.8 represents the molar absorption coefficient (mM^−1 cm^−1) of DCIP at a pH of 6.0, 1.0 represents the optical path length (cm) of a cell, 0.05 represents the amount (mL) of the oxygen solution, ΔA600 blank represents a reduction in the amount of light absorbance per minute at 600 nm when the solution used to dilute the enzyme is added in place of the enzyme solution to start a reaction, and df represents a dilution ratio.
Among the eluted protein, an active fraction was concentrated and desalted to obtain a purified enzyme of GLD derived from the genus Ciborinia substituted with water.

[3] = tested on: Sclerotinia sclerotiorum NBRC103652 flavin-binding glucose dehydrogenase ScGLD (C), purified, wild type; assay: Km value to D-glucose (Hanes-Woolf plot), ScGLD; type: biochemical; conditions: D-glucose varied, DCIP/1-m-PMS, pH 6.0, 37° C.
Method: After the column was washed with the buffer solution C2, a protein was eluted with linear gradient of a buffer solution D3 (500 mM potassium phosphate buffer solution, pH 7.0) in the buffer solution C2.

[4] = tested on: Ovulinia azaleae NBRC6610 flavin-binding glucose dehydrogenase OvGLD (B), purified, wild type, SEQ ID NO: 6 (without signal sequence SEQ ID NO: 14); conditions: read-out: Km value, D-glucose varied, Hanes-Woolf plot, DCIP/1-m-PMS, pH 6.0, 37° C.
Method: as §1, §2, §3

OC[C@H]1OC(O)[C@H](O)[C@@H](O)[C@@H]1O (stereo partly drawn) [D-glucose]
Km [1]: 35 mM
Km [2]: 5.44 mM
Km [3]: 16.7 mM
Km [4]: 22.8 mM

Reference: US8945359B2, “Flavin-binding glucose dehydrogenase” (Ikeda Food Research Co., Ltd., priority 2011, dated 2015)
